Test results taken from ChEMBL document CHEMBL1129854, “Novel small molecule neurotensin antagonists: 3-(1,5-diaryl-1,5-dioxopentan-3-yl)benzoic acids” (Bioorg Med Chem Lett, 1997).

How the values were obtained:
[1] = Inhibition of the binding of [3H]NT to neurotensin (NT) receptor in mouse brain tissue; assay type: tissue-based
[2] = test system: HT-29; assay: In vitro ability to inhibit the calcium mobilization induced by neurotensin (NT) in HT-29 cells; assay type: functional, cell-based; conditions: Homo sapiens

Row | Ki [1] | IC50 [2] | Structure (SMILES)
1 | > 10000 nM | – | O=C(O)c1cccc(C(CC(=O)c2ccccc2)CC(=O)c2ccccc2)c1
2 | 3.9 nM | 160 nM | COc1cccc(OC)c1-c1cc(C(=O)NC2(C(=O)O)C3CC4CC(C3)CC2C4)nn1-c1ccnc2cc(Cl)ccc12 (stereo not drawn) [REMINERTANT]
